The text below walks through data of ChEMBL document CHEMBL3734703, “(E)-2-Cyano-3-(substituted phenyl)acrylamide analogs as potent inhibitors of tyrosinase: A linear β-phenyl-α,β-unsaturated carbonyl scaffold” (Bioorg Med Chem, 2015).

Data set [1] has as its system B16-F10. The experiment in a line: Inhibition of alpha-MSH-mediated melanin biosynthesis in mouse B16F10 cells at 25 uM after 24 hrs. Type of data set: functional, cell-based.
A short description of data set [2]: Cytotoxicity against mouse B16F10 cells assessed as cell viability at 10 uM after 24 hrs by MTT assay relative to control. In kind it is cell-based, B16-F10. As to conditions: read-out: Activity.
The nature of data set [3]: Cytotoxicity against mouse B16F10 cells assessed as cell viability at 25 uM after 24 hrs by MTT assay relative to control. Type of data set: cell-based, B16-F10. As to conditions: read-out: Activity.
The subject of data set [4] is B16-F10. Description: Inhibition of alpha-MSH-mediated melanin biosynthesis in mouse B16F10 cells after 24 hrs. In kind it is functional, cell-based.
A short description of data set [5]: Cytotoxicity against mouse B16F10 cells assessed as cell viability at 5 uM after 24 hrs by MTT assay relative to control. Type of data set: cell-based, B16-F10. As to conditions: read-out: Activity. Background: Formazan colour is commonly taken as a measure of viable cells.
Data set [6] addresses T1, Tyrosinase (Agaricus bisporus) (UniProt O42713).
T1 sequence (whole entry): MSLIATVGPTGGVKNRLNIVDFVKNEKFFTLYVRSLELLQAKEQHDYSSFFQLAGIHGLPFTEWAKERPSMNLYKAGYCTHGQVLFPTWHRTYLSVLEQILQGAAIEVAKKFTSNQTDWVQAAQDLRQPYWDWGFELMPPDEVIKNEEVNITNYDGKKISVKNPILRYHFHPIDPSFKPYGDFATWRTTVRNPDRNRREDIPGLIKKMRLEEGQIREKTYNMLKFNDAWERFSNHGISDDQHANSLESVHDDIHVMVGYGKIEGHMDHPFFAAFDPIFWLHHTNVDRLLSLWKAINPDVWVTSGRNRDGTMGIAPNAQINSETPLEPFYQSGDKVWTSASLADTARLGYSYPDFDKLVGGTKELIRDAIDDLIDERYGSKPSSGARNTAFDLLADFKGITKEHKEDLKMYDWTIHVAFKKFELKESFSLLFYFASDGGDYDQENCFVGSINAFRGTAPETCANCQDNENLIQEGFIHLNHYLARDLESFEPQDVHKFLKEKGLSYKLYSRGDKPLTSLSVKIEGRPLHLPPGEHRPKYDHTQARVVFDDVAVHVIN
Description: Competitive inhibition of mushroom tyrosinase using L-tyrosine as substrate assessed as dopachrome production after 30 mins by Lineweaver-Burk plot analysis.

Data set [7] deals with T2, Tyrosinase (Mus musculus) (UniProt P11344).
T2 sequence (whole entry): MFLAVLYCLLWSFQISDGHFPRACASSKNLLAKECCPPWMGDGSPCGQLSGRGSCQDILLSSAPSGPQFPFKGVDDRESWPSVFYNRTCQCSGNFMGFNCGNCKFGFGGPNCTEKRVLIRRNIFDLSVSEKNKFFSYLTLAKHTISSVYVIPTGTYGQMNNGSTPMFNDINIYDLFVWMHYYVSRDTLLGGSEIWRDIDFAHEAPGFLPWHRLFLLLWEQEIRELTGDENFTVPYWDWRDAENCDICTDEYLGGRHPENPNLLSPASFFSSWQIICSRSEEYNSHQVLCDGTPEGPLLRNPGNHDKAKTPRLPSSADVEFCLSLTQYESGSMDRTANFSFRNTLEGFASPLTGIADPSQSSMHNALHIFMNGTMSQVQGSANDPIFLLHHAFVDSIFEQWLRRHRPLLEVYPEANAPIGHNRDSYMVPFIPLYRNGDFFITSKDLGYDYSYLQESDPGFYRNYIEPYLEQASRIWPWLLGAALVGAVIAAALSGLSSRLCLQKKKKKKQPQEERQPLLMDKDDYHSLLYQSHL
The experiment in a line: Inhibition of tyrosinase in alpha-MSH-stimulated mouse B16F10 cells assessed as L-DOPA oxidation after 24 hrs. In kind it is cell-based. As to conditions: B16-F10.

Molecules are shown by their SMILES. The source made the active and inactive calls. No cut-off for these calls is given here.

For `O=c1cc(CO)occ1O`, in the data set on B16-F10 [1], the inhibition entry is “Active”.
Take `N#C/C(=C\c1ccc(O)c(O)c1)C(N)=O`: the viability at 24 h, 10 µM in data set [2] stood at 98.6%. Also, the viability at 24 h, 25 µM in data set [3] was determined as 96.9%. The inhibition entry (in the data set with B16-F10 [4]; in data set [6]; in data set [7]) was “Dose-dependent effect” in each case. For the same compound, in data set [5], the viability at 24 h, 5 µM came out at 99.6%.
